In patent publication US8921362B2, “6,7-dialkoxy quinazoline derivatives and methods of treating drug resistant and other tumors” (Natco Pharma Limited, priority 2008, dated 2014):

Key:
Test in all cases: KinomeScan
Assay type in all cases: binding
Details in all cases: read-out: % Ctrl @ 10000 nM
[1] = target: T1, MAP4K3 (Homo sapiens, UniProt Q8IVH8)
T1 construct: host or cells: E. coli host derived from the BL21 strain, infected with T7 phage
Experimental: (§1) Kinase assays: Assays were performed as described in Fabian et al. (2005) Nature Biotechnology, vol. 23, p. 329. Kinase-tagged T7 phage strains were grown in parallel in 24 or 96-well blocks in an E. coli host derived from the BL21 strain. E. coli were grown to log-phase and infected with T7 phage from a frozen stock (multiplicity of infection ˜0.1) and incubated with shaking at 32° C. until lysis (−90 minutes). The lysates were centrifuged and filtered to remove cell debris. […] The liganded beads were blocked with excess biotin and washed with blocking buffer (SeaBlock (Pierce), 1% BSA, 0.05% Tween 20, 1 mM DTT) to remove unbound ligand and to reduce non-specific phage binding.
(§2) Test compounds were prepared as 40× stocks in DMSO and diluted into the aqueous environment. 2.5% DMSO was added to control assays lacking a test compound. All reactions were performed in polystyrene 96-well plates that had been pretreated with blocking buffer in a final volume of 0.04 ml. […] The phage titer in the eluates was measured by quantitative PCR.

[2] = target: T2, RPS6KA2(Kin.Dom.-2-C-terminal) (Homo sapiens, UniProt Q15349)
T2 construct: RPS6KA2(Kin.Dom.-2-C-terminal); host or cells: E. coli host derived from BL21, T7 phage display
Experimental: as §1, §2

[3] = target: T3, PAK7 (Homo sapiens, UniProt Q9P286)
T3 construct: host or cells: E. coli host derived from BL21, infected with T7 phage
Experimental: as §1, §2

[4] = target: T4, RPS6KA1(Kin.Dom.-2-C-terminal) (Homo sapiens, UniProt Q15418)
T4 construct: RPS6KA1(Kin.Dom.-2-C-terminal); host or cells: E. coli host derived from BL21, T7 phage display
T4 sequence (Q15418 418-675 limits assumed): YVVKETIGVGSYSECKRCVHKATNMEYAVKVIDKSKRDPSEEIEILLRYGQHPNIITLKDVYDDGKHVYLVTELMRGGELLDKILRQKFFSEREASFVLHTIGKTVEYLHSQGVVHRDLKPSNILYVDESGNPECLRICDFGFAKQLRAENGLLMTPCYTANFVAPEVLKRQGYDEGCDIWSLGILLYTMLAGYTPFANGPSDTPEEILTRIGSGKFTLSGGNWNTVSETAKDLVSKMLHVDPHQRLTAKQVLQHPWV
Experimental: as §1, §2

[5] = target: T5, PAK2 (Homo sapiens, UniProt Q13177)
T5 construct: host or cells: E. coli host derived from BL21, infected with T7 phage
Experimental: as §1, §2

[6] = target: T6, MAP4K2 (Homo sapiens, UniProt Q12851)
T6 construct: host or cells: E. coli host derived from the BL21 strain, infected with T7 phage
Experimental: as §1, §2

[7] = target: T7, TGFBR1 (Homo sapiens, UniProt P36897)
T7 construct: host or cells: T7 phage grown in E. coli (BL21-derived)
T7 sequence (P36897 34-503): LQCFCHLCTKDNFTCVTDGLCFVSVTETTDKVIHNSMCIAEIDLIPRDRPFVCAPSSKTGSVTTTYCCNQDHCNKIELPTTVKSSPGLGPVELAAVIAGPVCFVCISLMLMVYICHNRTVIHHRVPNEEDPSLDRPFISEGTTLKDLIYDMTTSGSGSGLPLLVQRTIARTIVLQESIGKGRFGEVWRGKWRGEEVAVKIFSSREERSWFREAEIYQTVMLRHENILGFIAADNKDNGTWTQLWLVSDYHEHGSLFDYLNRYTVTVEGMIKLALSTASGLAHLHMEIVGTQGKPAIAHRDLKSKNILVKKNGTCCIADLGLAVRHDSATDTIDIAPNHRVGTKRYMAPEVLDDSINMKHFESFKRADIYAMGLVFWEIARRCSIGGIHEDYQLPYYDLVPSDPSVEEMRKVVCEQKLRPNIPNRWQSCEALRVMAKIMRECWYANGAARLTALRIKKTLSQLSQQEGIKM
Experimental: as §1, §2

[8] = target: T8, TEC (Homo sapiens, UniProt P42680)
T8 construct: host or cells: T7 phage grown in E. coli (BL21-derived)
T8 sequence (P42680 whole entry): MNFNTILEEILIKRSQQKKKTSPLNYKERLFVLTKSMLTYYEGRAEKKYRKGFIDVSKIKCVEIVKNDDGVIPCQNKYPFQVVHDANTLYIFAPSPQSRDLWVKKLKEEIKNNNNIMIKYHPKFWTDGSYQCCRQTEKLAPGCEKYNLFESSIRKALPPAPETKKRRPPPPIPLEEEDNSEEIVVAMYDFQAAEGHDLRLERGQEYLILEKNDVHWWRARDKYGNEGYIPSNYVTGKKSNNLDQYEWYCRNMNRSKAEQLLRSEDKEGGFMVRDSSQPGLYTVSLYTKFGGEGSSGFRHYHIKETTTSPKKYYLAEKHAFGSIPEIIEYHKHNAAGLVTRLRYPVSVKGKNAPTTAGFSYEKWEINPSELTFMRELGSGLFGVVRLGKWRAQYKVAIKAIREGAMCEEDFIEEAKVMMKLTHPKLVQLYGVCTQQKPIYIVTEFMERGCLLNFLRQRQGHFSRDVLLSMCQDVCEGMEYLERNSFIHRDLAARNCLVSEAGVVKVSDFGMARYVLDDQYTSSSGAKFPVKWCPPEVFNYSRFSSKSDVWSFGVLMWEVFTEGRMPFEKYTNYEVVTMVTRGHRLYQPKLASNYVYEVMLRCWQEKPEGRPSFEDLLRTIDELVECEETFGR
Experimental: as §1, §2

[9] = target: T9, CDC2L1 (Homo sapiens, UniProt P21127)
T9 construct: host or cells: T7 phage in E. coli host derived from BL21
Experimental: as §1, §2

[10] = target: T10, RPS6KA1(Kin.Dom.-1-N-terminal) (Homo sapiens, UniProt Q15418)
T10 construct: RPS6KA1(Kin.Dom.-1-N-terminal); host or cells: E. coli host derived from BL21, T7 phage display
Experimental: as §1, §2

[11] = target: T11, DYRK1B (Homo sapiens, UniProt Q9Y463)
T11 construct: purchased Ambit Biosciences Corp (KinomeScan); host or cells: T7 phage in E. coli host derived from BL21
Experimental: as §1, §2

[12] = target: T12, DMPK2 (Homo sapiens, UniProt Q6DT37)
T12 construct: purchased Ambit Biosciences Corp (KinomeScan); host or cells: T7 phage in E. coli host derived from BL21
Experimental: as §1, §2

[13] = target: T13, ABL1(F317L) (Homo sapiens, UniProt P00519, F317L)
T13 construct: host or cells: E. coli (BL21-derived), T7 phage lysate
Experimental: as §1, §2

[14] = target: T14, p38-gamma (Homo sapiens, UniProt P53778)
T14 construct: host or cells: E. coli host derived from BL21, infected with T7 phage
Experimental: as §1, §2

[15] = target: T15, MLK1 (Homo sapiens, UniProt P80192)
T15 construct: host or cells: T7 phage grown in E. coli host derived from BL21
Experimental: as §1, §2

[16] = target: T16, RIPK1 (Homo sapiens, UniProt Q13546)
T16 construct: host or cells: E. coli host derived from BL21, T7 phage display
Experimental: as §1, §2

[17] = target: T17, AAK1 (Homo sapiens, UniProt Q2M2I8)
T17 construct: host or cells: E. coli (BL21-derived), T7 phage lysate
Experimental: as §1, §2

[18] = target: T18, LATS2 (Homo sapiens, UniProt Q9NRM7)
T18 construct: host or cells: T7 phage grown in E. coli host derived from BL21
T18 sequence (Q9NRM7 whole entry): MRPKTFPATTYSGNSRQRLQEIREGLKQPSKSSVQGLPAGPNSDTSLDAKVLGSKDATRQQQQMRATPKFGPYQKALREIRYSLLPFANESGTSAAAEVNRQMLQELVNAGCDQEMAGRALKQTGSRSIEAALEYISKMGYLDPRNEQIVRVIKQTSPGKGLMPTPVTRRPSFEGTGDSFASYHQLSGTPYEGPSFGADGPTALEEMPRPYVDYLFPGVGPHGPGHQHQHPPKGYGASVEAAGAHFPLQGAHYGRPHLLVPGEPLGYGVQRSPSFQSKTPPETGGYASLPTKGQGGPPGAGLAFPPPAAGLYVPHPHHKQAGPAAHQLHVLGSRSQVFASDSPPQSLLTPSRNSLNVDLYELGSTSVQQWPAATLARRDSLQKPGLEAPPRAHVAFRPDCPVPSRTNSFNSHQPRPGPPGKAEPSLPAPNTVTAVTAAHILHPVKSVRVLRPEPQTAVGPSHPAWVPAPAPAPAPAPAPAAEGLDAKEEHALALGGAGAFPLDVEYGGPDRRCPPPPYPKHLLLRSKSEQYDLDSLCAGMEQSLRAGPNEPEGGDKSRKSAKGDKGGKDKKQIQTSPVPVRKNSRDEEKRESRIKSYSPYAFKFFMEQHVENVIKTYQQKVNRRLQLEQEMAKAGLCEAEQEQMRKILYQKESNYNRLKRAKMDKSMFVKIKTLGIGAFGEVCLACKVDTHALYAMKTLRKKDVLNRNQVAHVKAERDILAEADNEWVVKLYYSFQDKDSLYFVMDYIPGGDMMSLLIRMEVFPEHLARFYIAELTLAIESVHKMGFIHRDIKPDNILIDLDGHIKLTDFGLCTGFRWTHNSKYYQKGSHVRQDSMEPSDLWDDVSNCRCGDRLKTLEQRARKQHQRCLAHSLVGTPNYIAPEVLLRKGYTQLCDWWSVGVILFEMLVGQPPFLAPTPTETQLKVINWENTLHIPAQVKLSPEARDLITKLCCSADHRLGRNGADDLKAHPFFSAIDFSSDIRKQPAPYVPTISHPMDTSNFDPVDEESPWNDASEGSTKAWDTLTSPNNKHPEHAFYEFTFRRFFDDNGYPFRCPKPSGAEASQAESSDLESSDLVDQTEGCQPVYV
Experimental: as §1, §2

[19] = target: T19, BTK (Homo sapiens, UniProt Q06187)
T19 construct: host or cells: E. coli host derived from BL21
Experimental: as §1, §2

[20] = target: T20, EPHA6 (Homo sapiens, UniProt Q9UF33)
T20 construct: purchased Ambit Biosciences Corp; host or cells: T7 phage in E. coli host derived from BL21
Experimental: as §1, §2

[21] = target: T21, NEK1 (Homo sapiens, UniProt Q96PY6)
T21 construct: host or cells: T7 phage grown in E. coli host derived from BL21
Experimental: as §1, §2

[22] = target: T22, BMPR2 (Homo sapiens, UniProt Q13873)
T22 construct: host or cells: E. coli host derived from BL21
T22 sequence (Q13873 27-1038): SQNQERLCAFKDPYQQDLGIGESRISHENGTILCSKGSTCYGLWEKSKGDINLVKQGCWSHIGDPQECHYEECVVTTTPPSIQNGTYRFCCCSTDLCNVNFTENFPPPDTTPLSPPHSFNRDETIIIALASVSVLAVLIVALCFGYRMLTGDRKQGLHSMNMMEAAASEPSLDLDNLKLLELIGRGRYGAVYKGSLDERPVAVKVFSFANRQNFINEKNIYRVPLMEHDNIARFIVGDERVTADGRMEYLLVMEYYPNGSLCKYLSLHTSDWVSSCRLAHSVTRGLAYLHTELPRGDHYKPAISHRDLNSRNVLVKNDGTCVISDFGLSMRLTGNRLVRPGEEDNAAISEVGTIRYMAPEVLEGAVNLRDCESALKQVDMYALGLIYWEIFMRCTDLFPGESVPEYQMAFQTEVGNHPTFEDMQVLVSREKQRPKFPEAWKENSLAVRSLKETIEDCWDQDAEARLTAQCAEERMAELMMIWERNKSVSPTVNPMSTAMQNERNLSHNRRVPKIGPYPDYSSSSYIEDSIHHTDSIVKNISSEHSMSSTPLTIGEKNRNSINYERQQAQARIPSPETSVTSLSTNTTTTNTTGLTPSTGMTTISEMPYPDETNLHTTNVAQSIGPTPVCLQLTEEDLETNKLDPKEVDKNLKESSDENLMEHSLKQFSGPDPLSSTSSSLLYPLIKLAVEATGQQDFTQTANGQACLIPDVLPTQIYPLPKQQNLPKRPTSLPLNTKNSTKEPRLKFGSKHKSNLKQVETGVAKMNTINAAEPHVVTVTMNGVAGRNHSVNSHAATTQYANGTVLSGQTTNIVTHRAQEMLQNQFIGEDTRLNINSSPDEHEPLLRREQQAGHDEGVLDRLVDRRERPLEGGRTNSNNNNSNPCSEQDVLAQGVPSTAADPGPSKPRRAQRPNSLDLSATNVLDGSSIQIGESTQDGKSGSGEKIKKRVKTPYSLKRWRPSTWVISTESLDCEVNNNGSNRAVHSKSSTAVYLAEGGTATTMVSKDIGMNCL
Experimental: as §1, §2

[23] = target: T23, TLK1 (Homo sapiens, UniProt Q9UKI8)
T23 construct: host or cells: E. coli host derived from BL21, T7 phage
Experimental: as §1, §2

[24] = target: T24, CSF1R (Homo sapiens, UniProt P07333)
T24 construct: host or cells: T7 phage in E. coli host derived from BL21
Experimental: as §1, §2

[25] = target: T25, MUSK (Homo sapiens, UniProt O15146)
T25 construct: host or cells: T7 phage grown in E. coli host derived from BL21
T25 sequence (O15146 24-869): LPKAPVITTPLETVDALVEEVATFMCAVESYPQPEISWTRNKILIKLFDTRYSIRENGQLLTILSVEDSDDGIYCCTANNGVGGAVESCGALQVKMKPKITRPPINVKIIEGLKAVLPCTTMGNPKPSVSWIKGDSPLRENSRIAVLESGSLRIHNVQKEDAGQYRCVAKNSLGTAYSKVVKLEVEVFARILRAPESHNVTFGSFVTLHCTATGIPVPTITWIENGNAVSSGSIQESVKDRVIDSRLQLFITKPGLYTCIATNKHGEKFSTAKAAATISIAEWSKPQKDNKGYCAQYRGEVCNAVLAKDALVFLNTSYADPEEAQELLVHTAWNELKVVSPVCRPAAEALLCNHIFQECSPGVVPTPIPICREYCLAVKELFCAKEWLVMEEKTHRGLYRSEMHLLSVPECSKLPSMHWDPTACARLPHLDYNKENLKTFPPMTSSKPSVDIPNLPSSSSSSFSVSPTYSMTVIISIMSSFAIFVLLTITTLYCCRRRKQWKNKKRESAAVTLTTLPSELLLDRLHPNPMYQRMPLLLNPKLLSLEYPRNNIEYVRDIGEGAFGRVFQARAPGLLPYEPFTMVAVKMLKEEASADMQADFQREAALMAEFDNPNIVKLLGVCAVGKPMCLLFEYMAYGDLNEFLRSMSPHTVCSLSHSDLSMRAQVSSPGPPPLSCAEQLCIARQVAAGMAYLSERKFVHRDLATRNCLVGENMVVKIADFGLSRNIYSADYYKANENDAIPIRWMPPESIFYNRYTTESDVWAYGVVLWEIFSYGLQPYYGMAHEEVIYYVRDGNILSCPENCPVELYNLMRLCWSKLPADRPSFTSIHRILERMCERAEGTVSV
Experimental: as §1, §2

[26] = target: T26, PIK3CG (Homo sapiens, UniProt P48736)
T26 construct: host or cells: T7 phage in E. coli host derived from BL21
Experimental: as §1, §2

[27] = target: T27, FLT3(D835Y) (Homo sapiens, UniProt P36888, D835Y)
T27 construct: host or cells: T7 phage in E. coli host derived from BL21
Experimental: as §1, §2

[28] = target: T28, MEK1 (Homo sapiens, UniProt Q02750)
T28 construct: host or cells: E. coli host derived from the BL21 strain, infected with T7 phage
Experimental: as §1, §2

[29] = target: T29, PIP5K1A (Homo sapiens, UniProt Q99755)
T29 construct: host or cells: T7 phage in E. coli host derived from BL21
Experimental: as §1, §2

[30] = target: T30, CHEK1 (Homo sapiens, UniProt O14757)
T30 construct: host or cells: T7 phage in E. coli host derived from BL21
Experimental: as §1, §2

[31] = target: T31, NEK5 (Homo sapiens, UniProt Q6P3R8)
T31 construct: host or cells: T7 phage grown in E. coli host derived from BL21
T31 sequence (Q6P3R8 whole entry): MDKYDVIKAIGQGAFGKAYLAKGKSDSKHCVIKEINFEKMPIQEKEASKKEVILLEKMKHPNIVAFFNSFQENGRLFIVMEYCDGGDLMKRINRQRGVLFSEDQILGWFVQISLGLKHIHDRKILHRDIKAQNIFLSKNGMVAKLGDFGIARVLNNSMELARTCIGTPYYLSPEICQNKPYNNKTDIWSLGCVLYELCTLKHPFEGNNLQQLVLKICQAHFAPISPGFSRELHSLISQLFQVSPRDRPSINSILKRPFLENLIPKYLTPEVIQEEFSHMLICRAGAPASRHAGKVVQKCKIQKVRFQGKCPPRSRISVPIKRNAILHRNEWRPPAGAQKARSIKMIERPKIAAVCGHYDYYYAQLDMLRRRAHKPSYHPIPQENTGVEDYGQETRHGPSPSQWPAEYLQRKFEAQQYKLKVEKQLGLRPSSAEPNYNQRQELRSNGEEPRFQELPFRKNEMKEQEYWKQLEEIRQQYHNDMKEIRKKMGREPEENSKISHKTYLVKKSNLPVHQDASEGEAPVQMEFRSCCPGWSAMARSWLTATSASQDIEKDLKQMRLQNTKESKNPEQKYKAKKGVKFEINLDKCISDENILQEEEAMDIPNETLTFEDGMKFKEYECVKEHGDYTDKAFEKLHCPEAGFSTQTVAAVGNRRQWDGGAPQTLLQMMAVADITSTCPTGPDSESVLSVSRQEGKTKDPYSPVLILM
Experimental: as §1, §2

In the case of `C#Cc1cccc(Nc2ncnc3cc(OC)c(OCCCN4CCOCC4)cc23)c1` [NRC-2694, N-(3-ethynylphenyl)-7-methoxy-6-[3-(4-morpholinyl)propoxy]-4-quinazolinamine], the remaining binding at 10 µM [1] is reported as 52%, the remaining binding at 10 µM [2] is reported as 78% and the remaining binding at 10 µM [3] is reported as 63%. It also gave a remaining binding at 10 µM [4] of 49%, a remaining binding at 10 µM [5] of 67% and a remaining binding at 10 µM [6] of 48%. It also gave a remaining binding at 10 µM [7] of 83%, a remaining binding at 10 µM [8] of 90% and a remaining binding at 10 µM [9] of 42%. For the same compound, the remaining binding at 10 µM [10] was 100%, the remaining binding at 10 µM [11] was 66% and the remaining binding at 10 µM [12] was 61%. The remaining binding at 10 µM [13] was 33%, the remaining binding at 10 µM [14] was 97% and the remaining binding at 10 µM [15] was 100%. The remaining binding at 10 µM [16] was 100%, the remaining binding at 10 µM [17] was 38% and the remaining binding at 10 µM [18] was 93%. For the same compound, the remaining binding at 10 µM [19] was 77%, the remaining binding at 10 µM [20] was 25% and the remaining binding at 10 µM [21] was 66%. For the same compound, the remaining binding at 10 µM [22] was 100%, the remaining binding at 10 µM [23] was 77% and the remaining binding at 10 µM [24] was 50%. The remaining binding at 10 µM [25] was 100%, the remaining binding at 10 µM [26] was 78% and the remaining binding at 10 µM [27] was 9.4%. For the same compound, the remaining binding at 10 µM [28] was 50%, the remaining binding at 10 µM [29] was 61% and the remaining binding at 10 µM [30] was 42%. The remaining binding at 10 µM [31] was 94%.
